The values that follow come from US20220112187A1, “PYRAZOLOPYRIDINE AMINE COMPOUNDS FOR THE TREATMENT OF AUTOIMMUNE DISEASE” (Hoffmann-La Roche Inc., priority 2018, published 2022).

Broadly, the IC50 is the concentration needed to halve the response being measured.

The test deals with T1, human TLR8 (Homo sapiens, UniProt Q9NR97).
T1 sequence (Q9NR97 27-1041): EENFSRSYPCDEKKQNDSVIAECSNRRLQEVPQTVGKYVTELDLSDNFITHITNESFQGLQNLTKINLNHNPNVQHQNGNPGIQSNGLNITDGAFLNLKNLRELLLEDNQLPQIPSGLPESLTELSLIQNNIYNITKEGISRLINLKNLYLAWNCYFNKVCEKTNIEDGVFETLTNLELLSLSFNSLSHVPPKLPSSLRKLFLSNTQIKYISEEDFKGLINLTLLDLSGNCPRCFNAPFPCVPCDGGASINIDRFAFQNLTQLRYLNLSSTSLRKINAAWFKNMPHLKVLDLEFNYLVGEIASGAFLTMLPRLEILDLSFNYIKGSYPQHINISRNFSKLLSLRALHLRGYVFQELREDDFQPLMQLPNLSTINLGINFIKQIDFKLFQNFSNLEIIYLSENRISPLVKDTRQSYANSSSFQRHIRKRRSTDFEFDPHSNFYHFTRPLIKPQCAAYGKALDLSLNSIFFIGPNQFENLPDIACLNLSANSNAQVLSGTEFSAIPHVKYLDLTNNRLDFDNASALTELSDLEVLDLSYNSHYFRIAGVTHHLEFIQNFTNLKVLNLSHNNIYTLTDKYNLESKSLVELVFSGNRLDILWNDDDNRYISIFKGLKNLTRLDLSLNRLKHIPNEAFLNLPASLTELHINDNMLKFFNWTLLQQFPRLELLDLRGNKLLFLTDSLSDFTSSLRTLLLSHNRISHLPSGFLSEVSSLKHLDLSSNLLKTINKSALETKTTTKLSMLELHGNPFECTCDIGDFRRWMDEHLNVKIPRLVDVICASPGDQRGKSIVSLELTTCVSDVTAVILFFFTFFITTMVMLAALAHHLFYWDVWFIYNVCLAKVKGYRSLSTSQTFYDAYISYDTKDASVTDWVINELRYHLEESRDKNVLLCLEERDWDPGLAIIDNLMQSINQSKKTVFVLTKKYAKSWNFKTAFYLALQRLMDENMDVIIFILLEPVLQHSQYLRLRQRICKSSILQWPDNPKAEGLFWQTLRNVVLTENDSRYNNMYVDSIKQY
The test can be described thus: HEK293-Blue-hTLR-8 cells assay (SEAP reporter, R848 stimulation). It is filed as cell-based. The settings on record: HEK293-Blue-hTLR8 cells, R848 ligand, 20 hrs incubation. The source says:
A stable HEK293-Blue-hTLR-8 cell line was purchased from InvivoGen (Cat. #: hkb-htlr8, San Diego, Calif., USA). These cells were originally designed for studying the stimulation of human TLR8 by monitoring the activation of NF-κB. A SEAP (secreted embryonic alkaline phosphatase) reporter gene was placed under the control of the IFN-β minimal promoter fused to five NF-κB and AP-1-binding sites. The SEAP was induced by activating NF-κB and AP-1 via stimulating HEK-Blue hTLR8 cells with TLR8 ligands. Therefore the reporter expression was declined by TLR8 antagonist under the stimulation of a ligand, such as R848, for incubation of 20 hrs. The cell culture supernatant SEAP reporter activity was determined using QUANTI-Blue™ kit (Cat. #: rep-qb1, Invivogen, San Diego, Ca, USA) at a wavelength of 640 nm, a detection medium that turns purple or blue in the presence of alkaline phosphatase.
HEK293-Blue-hTLR8 cells were incubated at a density of 250,000˜450,000 cells/mL in a volume of 170 μL in a 96-well plate in Dulbecco's Modified Eagle's medium (DMEM) containing 4.5 g/L glucose, 50 U/mL penicillin, […], […], 2 mM L-glutamine, 10% (v/v) heat-inactivated fetal bovine serum with addition of 20 μL test compound in a serial dilution in the presence of final DMSO at 1% and 10 μL of 60 uM R848 in above DMEM, perform incubation under 37° C. in a CO2 incubator for 20 hrs. Then 20 μL of the supernatant from each well was incubated with 180 μL Quanti-blue substrate solution at 37° C. for 2 hrs and the absorbance was read at 620˜655 nm using a spectrophotometer. The signalling pathway that TLR8 activation leads to downstream NF-κB activation has been widely accepted, and therefore similar reporter assay was modified for evaluating TLR8 antagonist.
On to `C[C@@H]1CN(c2ccc(C#N)n3nccc23)C[C@H](CN2C[C@H]3CC[C@@H](N(C)C)[C@H]3C2)O1` (racemic) [Example 75, 4-[(2S,6R)-2-[[4-(dimethylamino)-3,3a,4,5,6,6a-hexahydro-1H-cyclopenta[c]pyrrol-2-yl]methyl]-6-methyl-morpholin-4-yl]pyrazolo[1,5-a]pyridine-7-carbonitrile], for which half-maximal inhibition (IC50) was put at 600 nM.
Next, `C[C@@H]1CN(c2ccc(C#N)n3nccc23)C[C@H](CN2CCC3(CCNC3)C2)O1` (stereo partly drawn) [Example 6, 4-[(2S,6R)-2-(2,7-diazaspiro[4.4]nonan-2-ylmethyl)-6-methyl-morpholin-4-yl]pyrazolo[1,5-a]pyridine-7-carbonitrile]: 140 nM.
Next, `C[C@@H]1CN(c2ccc(C#N)n3nccc23)C[C@H](CN2CCC(N)C(F)(F)C2)O1` (stereo partly drawn) [Example 34, 4-[(2S,6R)-2-[(4-amino-3,3-difluoro-1-piperidyl)methyl]-6-methyl-morpholin-4-yl]pyrazolo[1,5-a]pyridine-7-carbonitrile]: 65 nM.
Next, `C[C@@H]1CN(c2ccc(C#N)n3nccc23)C[C@H](CN2CC3CCCNC3C2)O1` (stereo partly drawn) [Example 45, 4-[(2S,6R)-2-(1,2,3,4,4a,5,7,7a-octahydropyrrolo[3,4-b]pyridin-6-ylmethyl)-6-methyl-morpholin-4-yl]pyrazolo[1,5-a]pyridine-7-carbonitrile]: 230 nM.
Regarding `C[C@@H]1CN(c2ccc(C#N)n3nccc23)C[C@H](CN2CC3CCC(C2)C3N)O1` (stereo partly drawn) [Example 36, 4-[(2S,6R)-2-[(8-amino-3-azabicyclo[3.2.1]octan-3-yl)methyl]-6-methyl-morpholin-4-yl]pyrazolo[1,5-a]pyridine-7-carbonitrile], the IC50 was found to be 90 nM.
`C[C@@H]1CN(c2ccc(C#N)n3nccc23)C[C@H](CN2CCC(N3CCN(C)CC3)CC2)O1` [Example 1, 4-[(2R,6S)-2-methyl-6-[[4-(4-methylpiperazin-1-yl)-1-piperidyl]methyl]morpholin-4-yl]pyrazolo[1,5-a]pyridine-7-carbonitrile] came in with a half-maximal inhibitory concentration (IC50) of 28 nM.
Next, `C[C@@H]1CN(c2ccc(C#N)n3nccc23)C[C@H](CN2CCC[C@@H]3NCCC32)O1` (stereo partly drawn) [Example 63, 4-[(2R,6S)-2-methyl-6-[[cis-(3aS,7aS)-1,2,3,3a,5,6,7,7a-octahydropyrrolo[3,2-b]pyridin-4-yl]methyl]morpholin-4-yl]pyrazolo[1,5-a]pyridine-7-carbonitrile]: 44 nM; `C[C@@H]1CN(c2ccc(C#N)n3nccc23)C[C@H](CN2C3CCCC2CC(N)C3)O1` (stereo partly drawn) [Example 66, Exo-4-[(2S,6R)-2-[(3-amino-9-azabicyclo[3.3.1]nonan-9-yl)methyl]-6-methyl-morpholin-4-yl]pyrazolo[1,5-a]pyridine-7-carbonitrile]: 140 nM.
Turning to `C[C@@H]1CN(c2ccc(C#N)n3nccc23)C[C@H](CN2CCC3(CC2)CNCCO3)O1` [Example 60, 4-[(2R,6S)-2-methyl-6-(1-oxa-4,9-diazaspiro[5.5]undecan-9-ylmethyl)morpholin-4-yl]pyrazolo[1,5-a]pyridine-7-carbonitrile], the concentration for half-maximal inhibition (IC50) amounted to 96 nM.
`C[C@@H]1CN(c2ccc(C#N)n3nccc23)C[C@H](CN2CC3(CCCNCC3)C2)O1` [Example 46, 4-[(2S,6R)-2-(2,8-diazaspiro[3.6]decan-2-ylmethyl)-6-methyl-morpholin-4-yl]pyrazolo[1,5-a]pyridine-7-carbonitrile]: the IC50 worked out at 150 nM.
`CC1CN(C[C@H]2CN(c3ccc(C#N)n4nccc34)C[C@@H](C)O2)CCN1` (stereo partly drawn) [Example 28, 4-[(2R,6S)-2-methyl-6-[(3-methylpiperazin-1-yl)methyl]morpholin-4-yl]pyrazolo[1,5-a]pyridine-7-carbonitrile]: the IC50 is 65 nM.
`C[C@@H]1CN(c2ccc(C#N)n3nccc23)C[C@H](CN2C3CCC2CC(N)C3)O1` (stereo partly drawn) [Example 37, 4-[(2S,6R)-2-[(3-amino-8-azabicyclo[3.2.1]octan-8-yl)methyl]-6-methyl-morpholin-4-yl]pyrazolo[1,5-a]pyridine-7-carbonitrile]: the midpoint of inhibition, the IC50, lay at 45 nM.
Consider `C[C@@H]1CN(c2ccc(C#N)n3nccc23)C[C@H](CN2CC3(CCNCC3)C2)O1` [Example 24, 4-[(2S,6R)-2-(2,7-diazaspiro[3.5]nonan-2-ylmethyl)-6-methyl-morpholin-4-yl]pyrazolo[1,5-a]pyridine-7-carbonitrile], for which the midpoint of inhibition, the IC50, lay at 610 nM.
Next, `C[C@@H]1CN(c2ccc(C#N)n3nccc23)C[C@H](CN2CCCC3CNCC32)O1` (stereo partly drawn) [Example 61, 4-[(2S,6R)-2-(2,3,4,4a,5,6,7,7a-octahydropyrrolo[3,4-b]pyridin-1-ylmethyl)-6-methyl-morpholin-4-yl]pyrazolo[1,5-a]pyridine-7-carbonitrile]: 300 nM; `C[C@@H]1CN(c2ccc(C#N)n3ncc(F)c23)C[C@H](CN2CCCC3(CCNC3)C2)O1` (stereo partly drawn) [Example 68, 3-fluoro-4-[(2S,6R)-2-(2,7-diazaspiro[4.5]decan-7-ylmethyl)-6-methyl-morpholin-4-yl]pyrazolo[1,5-a]pyridine-7-carbonitrile]: 11 nM.
The molecule `C[C@@H]1CN(c2ccc(C#N)n3nccc23)C[C@H](CN2CCC23CNC3)O1` [Example 55, 4-[(2S,6R)-2-(1,6-diazaspiro[3.3]heptan-1-ylmethyl)-6-methyl-morpholin-4-yl]pyrazolo[1,5-a]pyridine-7-carbonitrile] registered an IC50 of 870 nM. This IC50 is about 79-fold higher than that of the molecule before.
Next, `C[C@@H]1CN(c2ccc(C#N)n3nccc23)C[C@H](CN2CCCC3(CCNC3)C2)O1` (stereo partly drawn) [Example 44, 4-[(2S,6R)-2-(2,7-diazaspiro[4.5]decan-7-ylmethyl)-6-methyl-morpholin-4-yl]pyrazolo[1,5-a]pyridine-7-carbonitrile]: 25 nM; `C[C@@H]1CN(c2ccc(C#N)n3nccc23)C[C@H](CN2CCCC3(CNC3)C2)O1` [Example 33, 4-[(2S,6R)-2-(2,6-diazaspiro[3.5]nonan-6-ylmethyl)-6-methyl-morpholin-4-yl]pyrazolo[1,5-a]pyridine-7-carbonitrile]: 54 nM.
Next, `C[C@@H]1CN(c2ccc(C#N)n3nccc23)C[C@H](CN2C3CNCC2COC3)O1` [Example 57, 4-[(2R,6S)-2-methyl-6-(3-oxa-7,9-diazabicyclo[3.3.1]nonan-9-ylmethyl)morpholin-4-yl]pyrazolo[1,5-a]pyridine-7-carbonitrile]: 62 nM; `C[C@@H]1CN(c2ccc(C#N)n3nccc23)C[C@H](CN2CC3CCNCC32)O1` (stereo partly drawn) [Example 56, 4-[(2S,6R)-2-(3,8-diazabicyclo[4.2.0]octan-8-ylmethyl)-6-methyl-morpholin-4-yl]pyrazolo[1,5-a]pyridine-7-carbonitrile]: 480 nM.
Next, `C[C@@H]1CN(c2ccc(C#N)n3nccc23)C[C@H](CN2CCC3(CN(C)CCO3)C2)O1` (stereo partly drawn) [Example 76, 4-[(2R,6S)-2-methyl-6-[(9-methyl-6-oxa-2,9-diazaspiro[4.5]decan-2-yl)methyl]morpholin-4-yl]pyrazolo[1,5-a]pyridine-7-carbonitrile]: 340 nM; `C[C@@H]1CN(c2ccc(C#N)n3nccc23)C[C@H](CN2CCC3(CCN3)CC2)O1` [Example 48, 4-[(2S,6R)-2-(1,7-diazaspiro[3.5]nonan-7-ylmethyl)-6-methyl-morpholin-4-yl]pyrazolo[1,5-a]pyridine-7-carbonitrile]: 110 nM.
